{"source": "patent US20220073613A1", "about": "“ACTIVATABLE MASKED ANTI-CTLA4 BINDING PROTEINS” (Xilio Development, Inc., priority 2018, published 2022)", "key": {"MC38 conditioned media": {"test_system": "MC38 conditioned media", "experiment": "AMSP-MS kinetic analysis of AK10 peptides, MC38", "assay_type": "biochemical, mouse", "details": "MC38 serum-free conditioned media", "description": "(§1) Ten sequences (AK10) shown in Table 19 were analyzed via AMSP-MS. These sequences were slightly modified from the original sequences to generate mass spectrometry-compatible peptides (in some cases adding basic residues to add positive charge) and spacing residues (GG) to produce longer ˜14-mer peptides. The peptides were prepared at a 500 nM final concentration in the AMSP-MS reaction. The AK10 library was also separately analyzed by LC-MS/MS for chemical validation of the peptide species. The AMSP-MS analysis was performed under standard substrate specificity profiling conditions, sampling time points during the reaction incubation at 0, 15, 60, 240 and 1200 min. Peptides were quantified by mass spectrometric label-free quantitation from the MS1 precursor ion peak areas for each peptide species. Enzyme progress curves were modeled in GraphPad Prism software v 8.0 and data were fitted using non-linear least squares fitting to the first order kinetic equation: where Y=percent product formation, Kobs is the observed rate, and t=time. In Michaelis-Menten kinetics, the observed rate Kobs is a function of the enzyme concentration and catalytic efficiency (kcat/KM). In this analysis of an enzyme mixture, Kobs was used to rank product cleavages."}, "NAT conditioned media": {"test_system": "NAT conditioned media", "experiment": "AMSP-MS kinetic analysis of AK10 peptides, NAT", "assay_type": "biochemical, human", "description": "as §1"}, "9D9 antibody": {"test_system": "9D9 antibody", "experiment": "Surface Plasmon Resonance of masking peptide binding to 9D9 antibody", "details": "SPR, reference channel", "description": "FIGS. 1A and 1B is a series of graphs showing in vitro analyses of anti-CTLA4 antibody occlusion by a masking peptide. Surface plasmon resonance (SPR) was performed to examine A) kinetics and B) affinity between 9D9 antibody (ligand) and masking peptide […] (analyte). Analytes were run in increasing concentrations of 2-fold serial dilutions from 0.1 to 50 μM at 37° C. Reference-subtracted response was plotted. SPR was performed three times and representative traces from one experiment are shown.\nSurface Plasmon Resonance was performed on a GE Biacore T200 instrument at 37° C. The 9D9 antibody and isotype control (reference channel) were coupled at 100 RU immobilization level to CM5 chip (GE Healthcare). Peptides were synthesized and diluted into HBS-EP+ running buffer (GE Healthcare). The binding data were analyzed using Biacore Evaluation Software, version 3.0."}, "tumor conditioned media": {"test_system": "tumor conditioned media", "experiment": "AMSP-MS kinetic analysis of AK10 peptides, patient tumor", "assay_type": "biochemical, human", "description": "as §1"}, "MB49 tumors": {"test_system": "MB49 tumors", "experiment": "MB49 murine bladder tumor model, efficacy and pharmacodynamics", "parameters": "species or system C57/BL6-huCTLA4 mice", "details": "mouse, in vivo", "description": "Efficacy and pharmacodynamics (PD) of anti-CTLA4 antibodies were assessed using the MB49 murine bladder tumor model. Efficacy was assessed by administering each test antibody (RSV-m control antibody, ipilimumab, Antibody 2-6, Antibody 2-14, and Antibody 2-15) and then assessing tumor volume and body weight. The anti-RSV control antibody contains S239D and I332E mutations (RSV-m control antibody). Peripheral immunophenotyping was also carried out on day 5, which assessed the percentage of CD4+Ki67+ cells and the percentage of CD4+ICOS+ cells in the peripheral blood on day 5 following administration. As used herein, dosing in mg/kg is also referred to as “mpk.” MB49 cells were inoculated subcutaneously into C57/BL6-huCTLA4 mice. Treatment started when the tumors reached approximately 350 mm^3. […]\nPharmacodynamics is assessed by administering antibody to each of five cohorts of mice, with dosing (mg/kg) as shown in Table 16. Immunophenotyping among other readouts are performed in the tumor, liver, spleen, and blood. T cells are assessed by measuring Foxp3+CD25+ cells as a percentage of CD4+ cells, and CD8+ cells are measured as a percentage of CD45+ cells. Cleavage and drug levels in tumors, liver, kidney, spleen, and plasma is also assessed."}}, "note": "“Also recorded” adds a separate entry of the source."}
{"substance": "MPYDLYHPRQARVVG [AK-10]", "values": [{"measurement": "ranking as substrate (relative efficiency)", "setting": "MC38 conditioned media", "result": "best substrates"}, {"measurement": "ranking as substrate (relative efficiency)", "setting": "NAT conditioned media", "result": "better performing substrates; also recorded: most efficient NAT substrate"}]}
{"substance": "CNLIVEGHC", "values": [{"measurement": "binding to isotype control antibody", "setting": "9D9 antibody", "result": "did not bind"}]}
{"substance": "LSGRSNAMPYDLYHP [AK-09]", "values": [{"measurement": "ranking as substrate (relative efficiency)", "setting": "MC38 conditioned media", "result": "best substrates"}, {"measurement": "ranking as substrate (relative efficiency)", "setting": "NAT conditioned media", "result": "better performing substrates"}]}
{"substance": "RGGDSGGFMLTGGK [AK-05]", "values": [{"measurement": "ranking as substrate (relative efficiency)", "setting": "NAT conditioned media", "result": "weaker substrates"}]}
{"substance": "RGGVPLSLYSGGGK [AK-03]", "values": [{"measurement": "ranking as substrate (relative efficiency)", "setting": "tumor conditioned media", "result": "top cleavages"}]}
{"substance": "RGGMPYDLYHPGGK [AK-04]", "values": [{"measurement": "ranking as substrate (relative efficiency)", "setting": "NAT conditioned media", "result": "better performing substrates"}, {"measurement": "ranking as substrate (relative efficiency)", "setting": "tumor conditioned media", "result": "top cleavages"}]}
{"substance": "ipilimumab [reference compound]", "values": [{"measurement": "Regulatory T cell depletion and CD8+ T cell activation in the tumor microenvironment", "setting": "MB49 tumors", "result": "not"}]}
